We go through one compound from patent US6214340A, “Physiologically active substance sulphostin, process for producing the same, and use thereof” (Zaidan Hojin Biseibutsu Kagaku Kenkyu Kai, priority 1997, dated 2001).

The series can be described thus: Solubility (physicochemical properties). An excerpt:
The physicochemical properties of the thus obtained physiologically active substance sulphostin are shown below.
4) Solubility: soluble in water and insoluble in lower alcohol, acetone, ethyl acetate, hexane and petroleum ether.

Regarding `NC1CCCN(P(N)(=O)NS(=O)(=O)O)C1=O` (centres unmarked) [sulphostin], the Solubility entry is “insoluble” (in lower alcohol, acetone, ethyl acetate, hexane and petroleum ether); “soluble” (in water).
